≈ marks a conversion by molar mass, not a printed value.
How the values were obtained:
Assay type in all cases: cell-based
S. aureus MP-12 = experiment: microbe, parasite or virus in culture; conditions: Staphylococcus aureus, MP12, read-out: MIC S. aureus MP-12
E. coli MP-4 = experiment: MIC determination by CLSI broth dilution, E. coli MP-4; conditions: strain MP-4; for MIC: Escherichia coli, MP4, CLSI broth dilution; for MIC E. coli MP-4: CLSI broth dilution
K. pneumoniae MP-546 = experiment: MIC determination by CLSI broth dilution, K. pneumoniae MP-546; conditions: strain MP-546; for MIC: Klebsiella pneumoniae, MP546, CLSI broth dilution; for MIC K. pneumoniae MP-546: CLSI broth dilution
K. pneumoniae MP-648 = experiment: MIC determination by CLSI broth dilution, K. pneumoniae MP-648; conditions: strain MP-648; for MIC: Klebsiella pneumoniae, MP648, CLSI broth dilution; for MIC K. pneumoniae MP-648: CLSI broth dilution
P. aeruginosa MP-3 = experiment: MIC determination by CLSI broth dilution, P. aeruginosa MP-3; conditions: for MIC: Pseudomonas aeruginosa, MP3, strain MP-3; for MIC P aeruginosa MP-3: strain MP-3
A. baumannii MP-15 = experiment: MIC determination by CLSI broth dilution, A. baumannii MP-15; conditions: for MIC: Acinetobacter baumannii, MP15, strain MP-15, read-out: MIC A. baumanii MP-15; for MIC A. baumanii MP-15: strain MP-15

| SMILES | MIC (S. aureus MP-12) [mg/L] | MIC (E. coli MP-4) [mg/L] | MIC (K. pneumoniae MP-546) [mg/L] | MIC (K. pneumoniae MP-648) [mg/L] | MIC (P. aeruginosa MP-3) [mg/L] | MIC (A. baumannii MP-15) [mg/L] | MIC E. coli MP-4 (E. coli MP-4) | MIC K. pneumoniae MP-546 (K. pneumoniae MP-546) | MIC K. pneumoniae MP-648 (K. pneumoniae MP-648) | MIC P aeruginosa MP-3 (P. aeruginosa MP-3) | MIC A. baumanii MP-15 (A. baumannii MP-15) |
| --- | --- | --- | --- | --- | --- | --- | --- | --- | --- | --- | --- |
| CO[C@]1(C)C[C@@H](C)CN(C)[C@H](CC2=CCN(CC3CC3)CC2)COC(=O)C(C)(C)C(=O)[C@H](C)[C@H]1O[C@@H]1O[C@H](C)C[C@H](N(C)C)[C@H]1O [Compound 148] | 4 to 32 (≈ 6.15 to 49.2 µM) | < 4 | 4 to 32 (≈ 6.15 to 49.2 µM) | 4 to 32 (≈ 6.15 to 49.2 µM) | > 32 | > 32 | – | – | – | – | – |
| CO[C@]1(C)C[C@@H](C)CN(C)[C@@H](CCCN2CCOCC2)COC(=O)C(C)(C)C(=O)[C@H](C)[C@H]1O[C@@H]1O[C@H](C)C[C@H](N(C)C)[C@H]1O [Compound 105, (3S,6R,8R,9R,10R)-9-(((2S,3R,4S,6R)-4-(dimethylamino)-3-hydroxy-6-methyltetrahydro-2H-pyran-2-yl)oxy)-8-methoxy-4,6,8,10,12,12-hexamethyl-3-(3-morpholinopropyl)-1-oxa-4-azacyclotridecane-11,13-dione] | 4 to 32 (≈ 6.37 to 51 µM) | < 4 | 4 to 32 (≈ 6.37 to 51 µM) | 4 to 32 (≈ 6.37 to 51 µM) | > 32 | > 32 | – | – | – | – | – |
| CO[C@]1(C)C[C@@H](C)CN(CC(C)C)[C@@H](CCCN(C)C(C)C)COC(=O)C(C)(C)C(=O)[C@H](C)[C@H]1O[C@@H]1O[C@H](C)C[C@H](N(C)C)[C@H]1O [Compound 8, (3S,6R,8R,9R,10R)-9-(((2S,3R,4S,6R)-4-(dimethylamino)-3-hydroxy-6-methyltetrahydro-2H-pyran-2-yl)oxy)-4-isobutyl-3-(3-(isopropyl(methyl)amino)propyl)-8-methoxy-6,8,10,12,12-pentamethyl-1-oxa-4-azacyclotridecane-11,13-dione] | < 4 | < 4 | 4 to 32 (≈ 6.1 to 48.8 µM) | 4 to 32 (≈ 6.1 to 48.8 µM) | > 32 | > 32 | – | – | – | – | – |
| CCCCCCCN1CCC(C[C@@H]2COC(=O)[C@@](C)(COC)C(=O)[C@H](C)[C@@H](O[C@@H]3O[C@H](C)C[C@H](N(C)C)[C@H]3O)[C@](C)(OC)C[C@@H](C)CN2C)CC1 [Compound 176] | > 32 | < 4 | < 4 | 4 to 32 (≈ 5.51 to 44.1 µM) | > 32 | > 32 | – | – | – | – | – |
| CCCCCCCN1CCC(C[C@@H]2COC(=O)[C@@](C)(Cc3ccccc3)C(=O)[C@H](C)[C@@H](O[C@@H]3O[C@H](C)C[C@H](N(C)C)[C@H]3O)[C@](C)(OC)C[C@@H](C)CN2C)CC1 [Compound 171] | 4 to 32 (≈ 5.18 to 41.4 µM) | < 4 | 4 to 32 (≈ 5.18 to 41.4 µM) | 4 to 32 (≈ 5.18 to 41.4 µM) | > 32 | > 32 | – | – | – | – | – |
| CO[C@H](CCN1CCCC1)[C@@H]1COC(=O)C(C)(C)C(=O)[C@H](C)[C@@H](O[C@@H]2O[C@H](C)C[C@H](N(C)C)[C@H]2O)[C@](C)(OC)C[C@@H](C)CN1C [Compound 77] | 4 to 32 (≈ 6.23 to 49.9 µM) | < 4 | < 4 | < 4 | > 32 | > 32 | – | – | – | – | – |
| CO[C@]1(C)C[C@@H](C)CN(CC(C)C)[C@@H](CCCN2CCCCC2)COC(=O)C(C)(C)C(=O)[C@H](C)[C@H]1O[C@@H]1O[C@H](C)C[C@H](N(C)C)[C@H]1O [Compound 121, (3S,6R,8R,9R,10R)-9-(((2S,3R,4S,6R)-4-(dimethylamino)-3-hydroxy-6-methyltetrahydro-2H-pyran-2-yl)oxy)-4-isobutyl-8-methoxy-6,8,10,12,12-pentamethyl-3-(3-(piperidin-1-yl)propyl)-1-oxa-4-azacyclotridecane-11,13-dione] | 4 to 32 (≈ 5.99 to 47.9 µM) | < 4 | 4 to 32 (≈ 5.99 to 47.9 µM) | 4 to 32 (≈ 5.99 to 47.9 µM) | > 32 | > 32 | – | – | – | – | – |
| CO[C@]1(C)C[C@@H](C)CN(C)[C@H](C[C@H]2C[C@H](N(C)CC(C)C)C2)COC(=O)C(C)(C)C(=O)[C@H](C)[C@H]1O[C@@H]1O[C@H](C)C[C@H](N(C)C)[C@H]1O [Compound 134, (3R,6R,8R,9R,10R)-9-(((2S,3R,4S,6R)-4-(dimethylamino)-3-hydroxy-6-methyltetrahydro-2H-pyran-2-yl)oxy)-3-(((1r,3S)-3-(isobutyl(methyl)amino)cyclobutyl)methyl)-8-methoxy-4,6,8,10,12,12-hexamethyl-1-oxa-4-azacyclotridecane-11,13-dione] | – | – | – | – | – | – | +++ (values less than or equal to 4 mg/L) | +++ (values less than or equal to 4 mg/L) | +++ (values less than or equal to 4 mg/L) | + (values greater than 32 mg/L) | + (values greater than 32 mg/L) |
| C=C(C)C[C@]1(C)C(=O)OC[C@@H](CC2CCN(CCCCCCC)CC2)N(C)C[C@H](C)C[C@@](C)(OC)[C@H](O[C@@H]2O[C@H](C)C[C@H](N(C)C)[C@H]2O)[C@@H](C)C1=O [Compound 175] | – | – | – | – | – | – | +++ (values less than or equal to 4 mg/L) | ++ (values of greater than 4 mg/L and less than or equal to 32 mg/L) | + (values greater than 32 mg/L) | + (values greater than 32 mg/L) | + (values greater than 32 mg/L) |
| CCN1CCN(C[C@H]2COC(=O)C(C)(C)C(=O)[C@H](C)[C@@H](O[C@@H]3O[C@H](C)C[C@H](N(C)C)[C@H]3O)[C@](C)(OC)C[C@@H](C)CN2C)CC1 [Compound 155, (3S,6R,8R,9R,10R)-9-(((2S,3R,4S,6R)-4-(dimethylamino)-3-hydroxy-6-methyltetrahydro-2H-pyran-2-yl)oxy)-3-((4-ethylpiperazin-1-yl)methyl)-8-methoxy-4,6,8,10,12,12-hexamethyl-1-oxa-4-azacyclotridecane-11,13-dione] | 4 to 32 (≈ 6.38 to 51 µM) | < 4 | – | 4 to 32 (≈ 6.38 to 51 µM) | > 32 | > 32 | – | – | – | – | – |
| CCN1C[C@H](C)C[C@@](C)(OC)[C@H](O[C@@H]2O[C@H](C)C[C@H](N(C)C)[C@H]2O)[C@@H](C)C(=O)C(C)(C)C(=O)OC[C@@H]1CCCN1CCN(c2ccncc2)CC1 [Compound 181] | > 32 | < 4 | – | > 32 | > 32 | > 32 | – | – | – | – | – |
| CO[C@]1(C)C[C@@H](C)CN(C)[C@H](/C=C/CN2Cc3cccnc3C2)COC(=O)C(C)(C)C(=O)[C@H](C)[C@H]1O[C@@H]1O[C@H](C)C[C@H](N(C)C)[C@H]1O [Compound 152] | 4 to 32 (≈ 6.07 to 48.6 µM) | < 4 | – | 4 to 32 (≈ 6.07 to 48.6 µM) | > 32 | > 32 | – | – | – | – | – |
| CCN(C)[C@H]1C[C@H](C[C@]2(C)COC(=O)C(C)(C)C(=O)[C@H](C)[C@@H](O[C@@H]3O[C@H](C)C[C@H](N(C)C)[C@H]3O)[C@](C)(OC)C[C@@H](C)CN2C)C1 [Compound 196] | 4 to 32 (≈ 6.25 to 50 µM) | < 4 | – | > 32 | > 32 | > 32 | – | – | – | – | – |
| CO[C@]1(C)C[C@@H](C)CN(C)[C@H]([C@@H](O)C2CCN(CC3CC3)CC2)COC(=O)C(C)(C)C(=O)[C@H](C)[C@H]1O[C@@H]1O[C@H](C)C[C@H](N(C)C)[C@H]1O [Compound 28] | – | – | – | – | – | – | + (values greater than 32 mg/L) | + (values greater than 32 mg/L) | + (values greater than 32 mg/L) | + (values greater than 32 mg/L) | + (values greater than 32 mg/L) |
| CCN1C[C@H](C)C[C@@](C)(OC)[C@H](O[C@@H]2O[C@H](C)C[C@H](N(C)C)[C@H]2O)[C@@H](C)C(=O)C(C)(C)C(=O)OC[C@@H]1CN1CCN(C(C)C)CC1 [Compound 159] | 4 to 32 (≈ 6.11 to 48.9 µM) | < 4 | – | 4 to 32 (≈ 6.11 to 48.9 µM) | > 32 | > 32 | – | – | – | – | – |
| CO[C@]1(C)C[C@@H](C)CN(C)[C@H](CC2CCN(CCO)CC2)COC(=O)C(C)(C)C(=O)[C@H](C)[C@H]1O[C@@H]1O[C@H](C)C[C@H](N(C)C)[C@H]1O [Compound 178] | > 32 | < 4 | – | < 4 | > 32 | > 32 | – | – | – | – | – |
| CCN1C[C@H](C)C[C@@](C)(OC)[C@H](O[C@@H]2O[C@H](C)C[C@H](N(C)C)[C@H]2O)[C@@H](C)C(=O)C(C)(C)C(=O)OC[C@H]1[C@H](O)CCN(C)CC(F)(F)F [Compound 193, (3S,6R,8R,9R,10R)-9-(((2S,3R,4S,6R)-4-(dimethylamino)-3-hydroxy-6-methyltetrahydro-2H-pyran-2-yl)oxy)-4-ethyl-3-((R)-1-hydroxy-3-(methyl(2,2,2-trifluoroethyl)amino)propyl)-8-methoxy-6,8,10,12,12-pentamethyl-1-oxa-4-azacyclotridecane-11,13-dione] | > 32 | 4 to 32 (≈ 5.85 to 46.8 µM) | – | > 32 | > 32 | > 32 | – | – | – | – | – |

— patent US12552825B2 (Zikani Therapeutics, Inc., priority 2019, dated 2026)
